Measured values as given in ChEMBL document CHEMBL4411307, “N,N'-diaryl-bishydrazones in a biphenyl platform: Broad spectrum antifungal agents” (Eur J Med Chem, 2019).
Converted amounts (≈) assume the structure as drawn. The source made the active and inactive calls. The rule behind the calls is not given here.

Tests used:
Listeria monocytogenes = experiment: Antibacterial activity against Listeria monocytogenes; format: functional, organism-based
Staphylococcus aureus = experiment: Antibacterial activity against methicillin-resistant Staphylococcus aureus; format: functional, organism-based
Enterococcus = experiment: Antibacterial activity against vancomycin-resistant Enterococcus; format: functional, organism-based
Candida albicans [1] = experiment: Antifungal activity against fluconazole/ITC-resistant Candida albicans ATCC 10231 measured after 48 hrs by CLSI M27-A3 protocol based method; format: functional; conditions: ATCC 10231, 48 h
Candida albicans [2] = experiment: Antifungal activity against fluconazole/ITC-resistant Candida albicans ATCC 64124 measured after 48 hrs by CLSI M27-A3 protocol based method; format: functional; conditions: ATCC 64124, 48 h
Candida albicans [3] = experiment: Antifungal activity against fluconazole/ITC-susceptible Candida albicans ATCC MYA-2876 measured after 48 hrs by CLSI M27-A3 protocol based method; format: functional; conditions: ATCC MYA-2876, 48 h
Candida albicans [4] = experiment: Antifungal activity against fluconazole/ITC-resistant Candida albicans ATCC 90819 measured after 48 hrs by CLSI M27-A3 protocol based method; format: functional; conditions: ATCC 90819, 48 h
Candida albicans [5] = experiment: Antifungal activity against fluconazole/ITC-susceptible Candida albicans ATCC MYA-2310 measured after 48 hrs by CLSI M27-A3 protocol based method; format: functional; conditions: ATCC MYA-2310, 48 h
Candida albicans [6] = experiment: Antifungal activity against fluconazole/ITC-resistant Candida albicans ATCC MYA-1237 measured after 48 hrs by CLSI M27-A3 protocol based method; format: functional; conditions: ATCC MYA-1237, 48 h
Candida albicans [7] = experiment: Antifungal activity against fluconazole/ITC-resistant Candida albicans ATCC MYA-1003 measured after 48 hrs by CLSI M27-A3 protocol based method; format: functional; conditions: ATCC MYA-1003, 48 h
Nakaseomyces glabratus = experiment: Antifungal activity against Candida glabrata ATCC 2001 measured after 48 hrs by CLSI M27-A3 protocol based method; format: functional; conditions: CBS 138, 48 h
Pichia kudriavzevii = experiment: Antifungal activity against Candida krusei ATCC 6258 measured after 48 hrs by CLSI M27-A3 protocol based method; format: functional; conditions: ATCC 6258, 48 h
Candida parapsilosis = experiment: Antifungal activity against Candida parapsilosis ATCC 22019 measured after 48 hrs by CLSI M27-A3 protocol based method; format: functional; conditions: Lodderomyces parapsilosis, ATCC 22019, 48 h
Aspergillus flavus = experiment: Antifungal activity against Aspergillus flavus ATCC MYA-3631 measured after 48 hrs by CLSI M38-A2 protocol based method; format: functional; conditions: ATCC MYA-3631, 48 h
Aspergillus nidulans = experiment: Antifungal activity against Aspergillus nidulans ATCC 38163 measured after 48 hrs by CLSI M38-A2 protocol based method; format: functional; conditions: ATCC 38163, 48 h
Aspergillus terreus = experiment: Antifungal activity against Aspergillus terreus ATCC MYA-3633 measured after 48 hrs by CLSI M38-A2 protocol based method; format: functional; conditions: ATCC MYA-3633, 48 h
A549 = experiment: Cytotoxicity against human A549 cells after 24 hrs by resazurin based assay; format: cell-based; conditions: a549, 24 h
BEAS-2B = experiment: Cytotoxicity against human BEAS2B cells after 24 hrs by resazurin based assay; format: cell-based
[8] = Selectivity index, ratio of CC50 for human A549 cells to MIC for fluconazole/ITC-resistant Candida albicans ATCC 10231; format: toxicity; conditions: read-out: Selectivity Index
[9] = Selectivity index, ratio of CC50 for human A549 cells to MIC for fluconazole/ITC-resistant Candida albicans ATCC 64124; format: toxicity; conditions: read-out: Selectivity Index
[10] = Selectivity index, ratio of CC50 for human A549 cells to MIC for fluconazole/ITC-susceptible Candida albicans ATCC MYA-2876; format: toxicity; conditions: read-out: Selectivity Index
[11] = Selectivity index, ratio of CC50 for human A549 cells to MIC for fluconazole/ITC-resistant Candida albicans ATCC 90819; format: toxicity; conditions: read-out: Selectivity Index
[12] = Selectivity index, ratio of CC50 for human A549 cells to MIC for fluconazole/ITC-susceptible Candida albicans ATCC MYA-2310; format: toxicity; conditions: read-out: Selectivity Index
[13] = Selectivity index, ratio of CC50 for human A549 cells to MIC for fluconazole/ITC-resistant Candida albicans ATCC MYA-1237; format: toxicity; conditions: read-out: Selectivity Index
[14] = Selectivity index, ratio of CC50 for human A549 cells to MIC for fluconazole/ITC-resistant Candida albicans ATCC MYA-1003; format: toxicity; conditions: read-out: Selectivity Index
[15] = Selectivity index, ratio of CC50 for human A549 cells to MIC for Candida glabrata ATCC 2001; format: toxicity; conditions: read-out: Selectivity Index
[16] = Selectivity index, ratio of CC50 for human A549 cells to MIC for Candida krusei ATCC 6258; format: toxicity; conditions: read-out: Selectivity Index
[17] = Selectivity index, ratio of CC50 for human A549 cells to MIC for Candida parapsilosis ATCC 22019; format: toxicity; conditions: read-out: Selectivity Index
[18] = Selectivity index, ratio of CC50 for human A549 cells to MIC for Aspergillus flavus ATCC MYA-3631; format: toxicity; conditions: read-out: Selectivity Index
[19] = Selectivity index, ratio of CC50 for human A549 cells to MIC for Aspergillus nidulans ATCC 38163; format: toxicity; conditions: read-out: Selectivity Index
[20] = Selectivity index, ratio of CC50 for human A549 cells to MIC for Aspergillus terreus ATCC MYA-3633; format: toxicity; conditions: read-out: Selectivity Index
[21] = Hemolytic activity in mouse RBC at […] after 1 hr relative to control; format: ADME, cell-based, Erythrocyte; conditions: red blood cells (erythrocytes), read-out: Activity; also: tested at 0.48 µg/mL
[22] = Hemolytic activity in mouse RBC at […] ug/ml after 1 hr relative to control; format: ADME, cell-based, Erythrocyte; conditions: red blood cells (erythrocytes), read-out: Activity
[23] = Hemolytic activity in mouse RBC at 1.95 ug/ml after 1 hr relative to control; format: ADME, cell-based, Erythrocyte; conditions: red blood cells (erythrocytes), read-out: Activity
[24] = Hemolytic activity in mouse RBC at 3.9 ug/ml after 1 hr relative to control; format: ADME, cell-based, Erythrocyte; conditions: red blood cells (erythrocytes), read-out: Activity
[25] = Hemolytic activity in mouse RBC at 7.8 ug/ml after 1 hr relative to control; format: ADME, cell-based, Erythrocyte; conditions: red blood cells (erythrocytes), read-out: Activity
[26] = Hemolytic activity in mouse RBC at 31.3 ug/ml after 1 hr relative to control; format: ADME, cell-based, Erythrocyte; conditions: red blood cells (erythrocytes), read-out: Activity
[27] = Hemolytic activity in mouse RBC at 62.5 ug/ml after 1 hr relative to control; format: ADME, cell-based, Erythrocyte; conditions: red blood cells (erythrocytes), read-out: Activity
[28] = Selectivity index, ratio of compound concentration showing <20 to <25% hemolysis in mouse RBC to MIC for fluconazole/ITC-resistant Candida albicans ATCC 10231; format: toxicity; conditions: red blood cells (erythrocytes), read-out: Selectivity Index
[29] = Selectivity index, ratio of compound concentration showing <20 to <25% hemolysis in mouse RBC to MIC for fluconazole/ITC-resistant Candida albicans ATCC 64124; format: toxicity; conditions: red blood cells (erythrocytes), read-out: Selectivity Index
[30] = Selectivity index, ratio of compound concentration showing <20 to <25% hemolysis in mouse RBC to MIC for fluconazole/ITC-susceptible Candida albicans ATCC MYA-2876; format: toxicity; conditions: red blood cells (erythrocytes), read-out: Selectivity Index
[31] = Selectivity index, ratio of compound concentration showing <20 to <25% hemolysis in mouse RBC to MIC for fluconazole/ITC-resistant Candida albicans ATCC 90819; format: toxicity; conditions: red blood cells (erythrocytes), read-out: Selectivity Index
[32] = Selectivity index, ratio of compound concentration showing <20 to <25% hemolysis in mouse RBC to MIC for fluconazole/ITC-susceptible Candida albicans ATCC MYA-2310; format: toxicity; conditions: red blood cells (erythrocytes), read-out: Selectivity Index
[33] = Selectivity index, ratio of compound concentration showing <20 to <25% hemolysis in mouse RBC to MIC for fluconazole/ITC-resistant Candida albicans ATCC MYA-1237; format: toxicity; conditions: red blood cells (erythrocytes), read-out: Selectivity Index
[34] = Selectivity index, ratio of compound concentration showing <20 to <25% hemolysis in mouse RBC to MIC for fluconazole/ITC-resistant Candida albicans ATCC MYA-1003; format: toxicity; conditions: red blood cells (erythrocytes), read-out: Selectivity Index
[35] = Selectivity index, ratio of compound concentration showing <20 to <25% hemolysis in mouse RBC to MIC for Candida glabrata ATCC 2001; format: toxicity; conditions: red blood cells (erythrocytes), read-out: Selectivity Index
[36] = Selectivity index, ratio of compound concentration showing <20 to <25% hemolysis in mouse RBC to MIC for Candida krusei ATCC 6258; format: toxicity; conditions: red blood cells (erythrocytes), read-out: Selectivity Index
[37] = Selectivity index, ratio of compound concentration showing <20 to <25% hemolysis in mouse RBC to MIC for Candida parapsilosis ATCC 22019; format: toxicity; conditions: red blood cells (erythrocytes), read-out: Selectivity Index
[38] = Selectivity index, ratio of compound concentration showing <20 to <25% hemolysis in mouse RBC to MIC for Aspergillus flavus ATCC MYA-3631; format: toxicity; conditions: red blood cells (erythrocytes), read-out: Selectivity Index
[39] = Selectivity index, ratio of compound concentration showing <20 to <25% hemolysis in mouse RBC to MIC for Aspergillus nidulans ATCC 38163; format: toxicity; conditions: red blood cells (erythrocytes), read-out: Selectivity Index
[40] = Selectivity index, ratio of compound concentration showing <20 to <25% hemolysis in mouse RBC to MIC for Aspergillus terreus ATCC MYA-3633; format: toxicity; conditions: red blood cells (erythrocytes), read-out: Selectivity Index

C(=N\Nc1ccccc1)/c1ccc(-c2cccc(/C=N/Nc3ccccc3)c2)cc1
Activity (Listeria monocytogenes): inactive | Activity (Staphylococcus aureus): inactive | Activity (Enterococcus): inactive | MIC (Candida albicans [1]): 1.95 µg/mL (≈ 4.99 µM) | MIC (Candida albicans [2]): 31.3 µg/mL (≈ 80.2 µM) | MIC (Candida albicans [3]): 31.3 µg/mL (≈ 80.2 µM) | MIC (Candida albicans [4]): 31.3 µg/mL (≈ 80.2 µM) | MIC (Candida albicans [5]): 31.3 µg/mL (≈ 80.2 µM) | MIC (Candida albicans [6]): 31.3 µg/mL (≈ 80.2 µM) | MIC (Candida albicans [7]): 3.9 µg/mL (≈ 9.99 µM) | MIC (Nakaseomyces glabratus): > 31.3 µg/mL | MIC (Pichia kudriavzevii): 7.8 µg/mL (≈ 20 µM) | MIC (Candida parapsilosis): > 31.3 µg/mL | MIC (Aspergillus flavus): 3.9 µg/mL (≈ 9.99 µM) | MIC (Aspergillus nidulans): 1.95 µg/mL (≈ 4.99 µM) | MIC (Aspergillus terreus): 15.6 µg/mL (≈ 39.9 µM) | CC50 (A549): > 31 µg/mL | CC50 (BEAS-2B): > 31 µg/mL | selectivity ratio [8]: 16 | selectivity ratio [9]: 1 | selectivity ratio [10]: 1 | selectivity ratio [11]: 1 | selectivity ratio [12]: 1 | selectivity ratio [13]: 1 | selectivity ratio [14]: 4 | selectivity ratio [15]: 1 | selectivity ratio [16]: 4 | selectivity ratio [17]: 1 | selectivity ratio [18]: 8 | selectivity ratio [19]: 16 | selectivity ratio [20]: 2 | hemolysis at 1 h, […] [21]: 0% | hemolysis at 1 h, 15.6 ug/ml ([22]; at 15.6 µg/mL): 14.1% | hemolysis at 1 h, 0.975 ug/ml [22]: 0% | hemolysis at 1 h, 1.95 ug/ml [23]: 3.5% | hemolysis at 1 h, 3.9 ug/ml [24]: 1.5% | hemolysis at 1 h, 7.8 ug/ml [25]: 8.5% | hemolysis at 1 h, 31.3 ug/ml [26]: 16.7% | hemolysis at 1 h, 62.5 ug/ml [27]: 23.6% | selectivity ratio [28]: 1 to 32 | selectivity ratio [29]: 1 to 32 | selectivity ratio [30]: 1 to 32 | selectivity ratio [31]: 1 to 32 | selectivity ratio [32]: 1 to 32 | selectivity ratio [33]: 1 to 32 | selectivity ratio [34]: 1 to 32 | selectivity ratio [35]: 1 to 32 | selectivity ratio [36]: 1 to 32 | selectivity ratio [37]: 1 to 32 | selectivity ratio [38]: 1 to 32 | selectivity ratio [39]: 1 to 32 | selectivity ratio [40]: 1 to 32
